Tests used:
[1] = tested on: rat closed femur fracture model; settings: in vivo
Text: Experimental treatment group values were compared to the no drug values using a χ^2 analysis. Significant differences are noted with an asterisk (P<0.01).
Pin slippage is dislodgement of the intramedullary stainless steel rod used to stabilize the fracture and permit the rat to weight-bear on the fractured femur. Once fracture stability was lost, the rat was euthanized since the rat could no longer weight-bear on the femur and since the callus would be re-injured and thus alter healing. […] Animals with these complications were excluded.

[2] = male rats, single drug dose; cited from earlier work
[3] = humans, depending upon drug dose; cited from earlier work
[4] = tested on: rat closed femur fracture model; assay: Radiographic analysis of femur fracture healing in NSAID treated rats; format: in vivo, male Sprague-Dawley rats; settings: for average radiograph score (union 1 point, mal-union 0.5 points, non-union 0 points): 8-week post-fracture radiographs, 7 blinded observers, control rats 0.71
Description: (§1) A total of 253 male Sprague-Dawley rats (584.+−0.62 g) were fed a standard diet and kept caged separately in a constant temperature and humidity environment. All rats were 6-9 months old at the beginning of the experiment. Drugs were administered daily by gavage beginning two days prior to fracture. Animals were randomly selected for each treatment group.
(§2) The rats were anesthetized by intraperitoneal injection of ketamine (40 mg/kg) and xylazine (5 mg/kg). Under aseptic conditions, a medial parapatellar incision (0.4-0.5 cm) was made in the right hindlimb and the patella was dislocated laterally. The medullary canal was entered through the intercondylar notch and reamed with an 18-gauge needle. A 1.1 mm stainless steel pin (Small Parts Inc., Miami Lakes, Fla.) was then inserted into the canal and secured in the proximal part of the greater trochanter by tamping. The distal portion of the pin was then cut flush with the femoral condyles and the patella dislocation was reduced. The soft tissue and skin were closed with 4-0 vicryl sutures. After closing, the diaphysis of the pinned femur was fractured by means of a three-point bending device as described by Bonnarens and Einhorn (Bonnarens and Einhorn 1984).
Radiographs were made post-fracture to confirm the position and quality of each fracture and at sacrifice to determine the degree of healing. In addition several rats were selected randomly to produce serial radiographs (at least 2 rats per treatment group). Radiographs were made of these rats weekly under anesthesia until the experimental endpoint (8 weeks). Radiographs of mice were also made under anesthesia. All radiographs were made using a 43805N Faxitron (Hewlett-Packard, McMinnville, Oreg.) and Kodak MinR-2000 mammography film.
Radiographs were made immediately following fracture production and then every week till the end point of the experiments (8 weeks post-fracture).
In addition to the serial radiographs made for certain rats, all animals in this study were examined radiographically immediately post-fracture and when euthanized. A random, blinded sample of the 8-week post-fracture radiographs were independently examined by 7 observers and scored as a union (1 point), mal-union (0.5 points), or non-union (0 points).

[5] = tested on: rat closed femur fracture model; assay: Histology of fracture callus; format: in vivo, male Sprague-Dawley rats; settings: for histology of the healing femur fractures compared to untreated control rat: 2 weeks post-fracture; for cartilage in the fracture callus: 3 and 4 weeks post-fracture; for healing of fractured femurs by histology: 6 and 8 weeks post-fracture
Description: as §1, with “group. […] No drug (control) rats were not initially gavaged but later rats were gavaged with water and no difference was noted between the no drug rats that had been gavaged and those that had not. No statistically significant differences were found in animal weight changes during the experiments.” for “group.”
as §2
Rats were sacrificed at 2, 3, 4, 6, and 8 weeks post-fracture by CO2 asphyxiation. Both femora were resected and the stainless steel pin was removed from the medullary canal. The harvested femora were fixed in 10% buffered formalin and embedded in polymethylmethacrylate following standard histological techniques for calcified tissue. The samples were sectioned sagitally through the fracture callus using an Isomet diamond saw (Buehler Ltd., Lake Bluff, Ill.), mounted on plexiglass slides, and polished to a thickness of 100 μ.m. The slides were then stained with van Gieson's picrofuchsin and Stevenel's blue in order to identify new bone growth and cartilage formation (Maniatopoulos et al. 1986). Mice femora were fixed, decalcified, paraffin embedded, sectioned, and stained with Masson's trichrome stain. The samples were viewed and photomicrographs were taken using an Olympus BH2-RFCA microscope or an Olympus SZ40 microscope.

[6] = biological target: COX-2 (Homo sapiens, UniProt P35354); settings: cited from earlier work
[7] = tested on: rat closed femur fracture model; assay: Torsional mechanical testing of fractured femurs; format: in vivo, male Sprague-Dawley rats; settings: for normalized maximum shear stress / normalized torsional rigidity / normalized peak torque / normalized shear stress: percentage of contralateral unfractured femur; for normalized maximum shear stress: no drug 48; for effect on fracture healing at the dose and treatment regime used: daily gavage, indomethacin 1 mg/kg, celecoxib 4 mg/kg, rofecoxib 3 mg/kg; for Shear Modulus, mean / Peak Torque (Tmax), mean: fractured femur; for Peak Torque (Tmax), mean: not normalized; for Mal-Union (Stage III), frequency / Non-Union (Stage I/II), frequency / Union (Stage IV), frequency: mechanically tested fractured femurs at 8 weeks post-fracture; for normalized shear stress: no drug 36
Description: as §1, with “group. […] No drug (control) rats were not initially gavaged but later rats were gavaged with water and no difference was noted between the no drug rats that had been gavaged and those that had not. No statistically significant differences were found in animal weight changes during the experiments.” for “group.”
as §2
Animals within each treatment group were sacrificed at 4, 6, and 8 weeks post-fracture by CO2 asphyxiation. Animals with oblique, comminuted, or infected fractures were not used for mechanical testing. Both femora were removed and cleaned of all soft tissue leaving the fracture callus undisturbed and then immediately processed for mechanical testing. The samples were wrapped in saline soaked gauze to prevent dehydration between steps. Measurements of the femora were taken using digital calipers to determine femur length and external callus dimensions. The intramedullary pin was removed from the fractured femur and a 1 mm-diameter stainless steel pin (˜0.8 cm length) was inserted at the proximal and distal end perpendicular to the long axis of the bone to prevent slipping in the potting material. The intact femur was also pinned as described above. The femoral ends were potted in 1-inch hexnuts using a low melt temperature metal (Wood's metal, Alfa Aesar, Ward Mill, Mass.). Once potted, the gage length (L) of each femur was measured. Torsional testing was conducted using a servohydraulic testing machine (MTS, Eden, Praire, Minn.) with a 20 Nm reaction torque cell (Interface, Scottsdale, Ariz.). The testing was carried out to failure at a rate of 2°/sec and a data recording rate of 20 Hz. Both the fractured and intact femora were tested in internal rotation in proper anatomic orientation. The peak torque and angle at failure were calculated from the load-deformation curves. Internal fracture callus dimensions were measured after mechanical testing. From the callus dimensions, the polar moment of inertia (J) was calculated based upon a hollow ellipse model (Bell et al. 1941; Engesaeter et al. 1978). The equations used to derive torsional rigidity, shear stress, shear modulus, and J were as follows (Popov 1968): (1) Torsional Rigidity: (Tmax·L)/φ where Tmax is the peak torque value in Nmm, L is the gage length in mm, and φ is the angle at failure in radians. (2) Shear Stress: (Tmax·Rmax)/J where Rmax is the largest radial dimension of the fracture callus in mm (ao) and J is the polar moment of inertia. […]

[8] = 8 weeks post-fracture, no drug 88
[9] = 8 weeks post-fracture, no drug 101
[10] = 6 weeks post-fracture, no drug 89

COX-2, sequence (P35354 18-604): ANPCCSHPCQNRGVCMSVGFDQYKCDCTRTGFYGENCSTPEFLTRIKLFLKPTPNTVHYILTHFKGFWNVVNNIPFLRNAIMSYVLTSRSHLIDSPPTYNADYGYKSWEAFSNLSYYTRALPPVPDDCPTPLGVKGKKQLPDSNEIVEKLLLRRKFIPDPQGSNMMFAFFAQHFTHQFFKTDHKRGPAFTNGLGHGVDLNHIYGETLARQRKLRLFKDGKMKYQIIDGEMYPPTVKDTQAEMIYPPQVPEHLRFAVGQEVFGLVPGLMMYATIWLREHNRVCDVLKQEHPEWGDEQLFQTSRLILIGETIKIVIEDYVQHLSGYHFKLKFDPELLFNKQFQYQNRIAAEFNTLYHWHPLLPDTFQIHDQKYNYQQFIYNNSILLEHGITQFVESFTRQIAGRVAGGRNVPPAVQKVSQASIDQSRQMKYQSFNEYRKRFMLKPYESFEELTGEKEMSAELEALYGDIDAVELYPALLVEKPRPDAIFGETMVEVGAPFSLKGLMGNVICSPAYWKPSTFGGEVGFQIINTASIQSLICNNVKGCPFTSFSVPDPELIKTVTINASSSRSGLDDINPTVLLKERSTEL

Row | SMILES | estimated plasma half-life [2] | average radiograph score (union 1 point, mal-union 0.5 points, non-union 0 points) [4] | histology of the healing femur fractures compared to untreated control rat [5] | cartilage in the fracture callus [5] | healing of fractured femurs by histology [5] | normalized maximum shear stress ([7]; 8 weeks post-fracture) | normalized torsional rigidity [7, 8] | normalized peak torque [7, 9] | effect on fracture healing at the dose and treatment regime used [7] | Shear Modulus, mean ([7]; 4 wks) | Peak Torque (Tmax), mean ([7]; 4 wks) | Shear Modulus, mean ([7]; 6 wks) | Peak Torque (Tmax), mean ([7]; 6 wks) | Shear Modulus, mean ([7]; 8 wks) | Peak Torque (Tmax), mean ([7]; 8 wks) | Mal-Union (Stage III), frequency [7] | Non-Union (Stage I/II), frequency [7] | Union (Stage IV), frequency [7] | normalized shear stress ([7]; 6 weeks post-fracture) | normalized torsional rigidity [7, 10] | also measured
1 | CS(=O)(=O)c1ccc(C2=C(c3ccccc3)C(=O)OC2)cc1 [Rofecoxib, rofecoxib] | ~5 h | 0.32 | gross abnormalities | little or no cartilage was evident | no further healing was evident | 18% | 31% | 50% | stops fracture healing | 0.2 GPa | 250 Nmm | 0.3 GPa | 383 Nmm | 0.5 GPa | 338 Nmm | 1 | 4 | 0 |  |  | infection rate as compared to the no drug rats [1]: statistically significant higher; pin slippage, rats having to be euthanized prior to the endpoint ([1]; male, Sprague-Dawley): ≤ 30%; plasma half-life [3]: 10 to 17 h; formation of an X-ray dense hard callus ([4]; 2 and 4 week post-fracture radiographs): did not prevent; original fracture on radiograph ([4]; after 8 weeks): still plainly evident; bone resorption at the distal ends of the fracture bones ([5]; rat, in vivo): massive bone resorption event; selectivity for COX-2 relative to COX-1 [6]: ~35 fold; mechanical properties of the fractured femurs compared to no drug rats ([7]; rofecoxib: 8 weeks post-fracture, all values measured or derived): significantly less
2 | COc1ccc2c(c1)c(CC(=O)O)c(C)n2C(=O)c1ccc(Cl)cc1 [Indomethacin, indomethacin] |  | 0.54 | gross abnormalities | presence of cartilage | appeared to be healing | not significantly different | not significantly different | not significantly different | delays, but does not prevent fracture healing | 0.3 GPa | 417 Nmm | 0.4 GPa | 357 Nmm | 1.8 GPa | 469 Nmm | 1 | 1 | 6 | 15% | 34% | bridging of the fracture gap (time post fracture) ([4]; radiography, untreated rats approximately 4-5 weeks): 5-6 weeks; normalized peak torque ([7]; 6 weeks post-fracture, no drug 77): 46%
3 | Cc1ccc(-c2cc(C(F)(F)F)nn2-c2ccc(S(N)(=O)=O)cc2)cc1 [Celecoxib, celecoxib] | approximately 4 hours | 0.49 |  |  |  |  |  |  |  | 0.3 GPa | 302 Nmm | 0.9 GPa | 567 Nmm | 1.7 GPa | 620 Nmm | 3 | 3 | 0 | 22% | 50% | rats tested whose fractured femurs healed as mal-unions rather than non-unions ([7]; rat, in vivo): approximately 50%

Reference: patent US20110053860A1, “COX-2 function and wound healing” (priority 2001, published 2011)
